Results on 17 compounds are retold here after US12435072B2, “Compounds” (Vicore Pharma AB, priority 2019, dated 2025).

Common to all, as to type: in vitro ADME
The target in series [1] is T1, CYP2B6 (Homo sapiens, UniProt P20813).
T1 construct: incubated with human liver microsomes; tissue Eurofins ITEMG232; host or cells: human liver microsomes
T1 sequence (P20813 1-491): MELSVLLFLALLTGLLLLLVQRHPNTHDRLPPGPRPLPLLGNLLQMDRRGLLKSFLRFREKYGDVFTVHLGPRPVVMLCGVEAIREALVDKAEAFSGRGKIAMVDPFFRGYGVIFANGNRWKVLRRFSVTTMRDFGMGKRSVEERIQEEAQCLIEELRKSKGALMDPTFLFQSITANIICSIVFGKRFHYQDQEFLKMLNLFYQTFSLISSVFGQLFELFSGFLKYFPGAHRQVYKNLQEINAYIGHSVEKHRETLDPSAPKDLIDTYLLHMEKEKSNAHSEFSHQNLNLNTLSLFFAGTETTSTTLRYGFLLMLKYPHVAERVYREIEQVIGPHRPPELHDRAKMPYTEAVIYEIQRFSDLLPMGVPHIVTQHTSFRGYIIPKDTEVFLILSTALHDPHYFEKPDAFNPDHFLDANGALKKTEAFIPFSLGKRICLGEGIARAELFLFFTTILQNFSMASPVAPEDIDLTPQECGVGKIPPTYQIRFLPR
The series is described as follows: CYP inhibition in human liver microsomes, CYP2B6. The note with it: probe bupropion, substrate bupropion, read-out: CYP2B6 Inh %. The procedure:
(§1) The following substrates were used: CYP1A phenacetin, CYP2B6 bupropion, CYP2C8 paclitaxel and amodiaquine, CYP2C9 diclofenac, CYP2C19 omeprazole, CYP2D6 dextromethorphan, CYP3A midazolam and testosterone. At the end of the incubation, the formation of metabolite was monitored by HPLC-MS/MS as the peak area response.
Background: Microsomes from liver hold many membrane-bound enzymes, among them those of drug oxidation.

Series [2] deals with T2, CYP2C19 (Homo sapiens, UniProt P33261).
T2 construct: incubated with human liver microsomes; tissue Eurofins ITEMG232; host or cells: human liver microsomes
T2 sequence (P33261 whole entry): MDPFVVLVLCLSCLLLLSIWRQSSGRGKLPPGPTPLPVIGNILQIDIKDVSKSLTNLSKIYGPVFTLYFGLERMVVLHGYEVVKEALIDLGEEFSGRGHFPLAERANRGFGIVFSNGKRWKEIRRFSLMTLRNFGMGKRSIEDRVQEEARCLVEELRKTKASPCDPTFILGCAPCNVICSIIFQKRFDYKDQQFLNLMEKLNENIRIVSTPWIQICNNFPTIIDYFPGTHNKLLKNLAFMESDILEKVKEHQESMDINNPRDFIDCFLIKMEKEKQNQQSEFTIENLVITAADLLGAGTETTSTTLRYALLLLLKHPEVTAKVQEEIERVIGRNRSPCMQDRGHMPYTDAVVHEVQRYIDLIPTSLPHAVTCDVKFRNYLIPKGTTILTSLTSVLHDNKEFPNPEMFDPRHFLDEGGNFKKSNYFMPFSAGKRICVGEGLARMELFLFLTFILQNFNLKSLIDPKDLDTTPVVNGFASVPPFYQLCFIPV
Description: CYP inhibition in human liver microsomes, CYP2C19. The note with it: probe omeprazole, substrate omeprazole, read-out: CYP2C19 Inh %. The method, then:
as §1

Series [3] addresses T3, CYP2D6 (Homo sapiens, UniProt P10635).
T3 construct: incubated with human liver microsomes; tissue Eurofins ITEMG232; host or cells: human liver microsomes
The series is described as follows: CYP inhibition in human liver microsomes, CYP2D6. The conditions noted are these: probe dextromethorphan, substrate dextromethorphan, read-out: CYP2D6 Inh %. In outline:
(§2)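 Human liver microsomes were incubated with isoform-selective probe substrates: diclofenac for CYP2C9, dextromethorphan for CYP2D6, and paclitaxel and amodiaquine for CYP2C8. After incubation, metabolite formation was measured by HPLC-MS/MS as peak area response.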

The target in series [4] is CYP2C9 (Homo sapiens, UniProt P11712). Description: CYP inhibition in human liver microsomes, CYP2C9. Details: incubated with human liver microsomes; tissue Eurofins ITEMG232; host or cells: human liver microsomes. The note with it: probe diclofenac, substrate diclofenac, read-out: CYP2C9 Inh %. In outline:
as §2

T3 sequence (P10635 whole entry): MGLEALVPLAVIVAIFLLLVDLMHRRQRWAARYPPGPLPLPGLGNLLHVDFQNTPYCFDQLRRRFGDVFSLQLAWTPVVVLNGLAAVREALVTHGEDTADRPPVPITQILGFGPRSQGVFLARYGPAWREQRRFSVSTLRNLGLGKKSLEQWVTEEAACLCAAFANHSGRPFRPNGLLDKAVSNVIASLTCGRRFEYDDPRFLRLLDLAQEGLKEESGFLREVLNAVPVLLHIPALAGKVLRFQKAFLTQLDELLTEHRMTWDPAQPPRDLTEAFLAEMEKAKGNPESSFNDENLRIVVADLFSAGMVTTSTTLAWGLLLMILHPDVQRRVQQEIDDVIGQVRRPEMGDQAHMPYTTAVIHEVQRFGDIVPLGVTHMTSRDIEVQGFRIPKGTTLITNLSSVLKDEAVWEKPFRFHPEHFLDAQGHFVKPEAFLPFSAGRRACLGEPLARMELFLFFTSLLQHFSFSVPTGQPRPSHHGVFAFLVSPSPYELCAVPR
Sequence of CYP2C9 (P11712 whole entry): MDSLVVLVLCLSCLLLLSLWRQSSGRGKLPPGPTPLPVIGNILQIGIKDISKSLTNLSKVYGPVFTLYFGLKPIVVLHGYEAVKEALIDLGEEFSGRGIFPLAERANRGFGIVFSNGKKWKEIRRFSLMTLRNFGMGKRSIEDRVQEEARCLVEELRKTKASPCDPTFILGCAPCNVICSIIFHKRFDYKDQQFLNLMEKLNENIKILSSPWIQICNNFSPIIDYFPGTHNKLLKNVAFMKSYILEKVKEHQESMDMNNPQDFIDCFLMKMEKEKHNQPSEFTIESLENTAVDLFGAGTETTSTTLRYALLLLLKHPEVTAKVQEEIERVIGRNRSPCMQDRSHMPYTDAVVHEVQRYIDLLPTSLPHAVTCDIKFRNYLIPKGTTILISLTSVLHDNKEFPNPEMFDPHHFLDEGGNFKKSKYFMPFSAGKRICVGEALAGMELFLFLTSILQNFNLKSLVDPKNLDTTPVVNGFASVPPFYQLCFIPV

Turning to `Cc1nccn1Cc1ccc(-c2cc(CC(C)C)sc2S(=O)(=O)NC(=O)NCc2ccccc2)cc1` [Example 1, 1-benzyl-3-[[5-isobutyl-3-[4-[(2-methylimidazol-1-yl)methyl]phenyl]-2-thienyl]sulfonyl]urea], the inhibition at 10 µM is 19% in series [1], 59.1% in series [2], 14.3% in series [3] and 49.7% in series [4].

Regarding `Cc1nccn1Cc1ccc(-c2cc(CC(C)C)sc2S(=O)(=O)NC(=O)NCc2ccccn2)cc1` [Example 2, 3-(5-isobutyl-3-{p-[(2-Methyl-1H-imidazol-1-yl)methyl]phenyl}-2-thienylsulfonyl)-1-[(2-pyridyl)methyl]urea], the inhibition at 10 µM in series [1] is 8.2%; in series [2], 35.4%; in series [3], 8.6%; in series [4], 30.4%.

With `CCCCNC(=O)NS(=O)(=O)c1sc(CC(C)C)cc1-c1ccc(Cn2ccnc2C)cc1` [Example 4, 1-Butyl-3-(5-isobutyl-3-{p-[(2-methyl-1H-imidazol-1-yl)methyl]phenyl}-2-thienylsulfonyl)-urea], the inhibition at 10 µM in series [1] stood at 12.7%; in series [2] it was 37.5%; in series [3], 7.7%; in series [4] it was 31.3%.

With `Cc1nccn1Cc1ccc(-c2cc(CC(C)C)sc2S(=O)(=O)NC(=O)NCCCC(F)(F)F)cc1` [Example 5, 3-(5-isobutyl-3-{p-[(2-Methyl-1H-imidazol-1-yl)methyl]phenyl}-2-thienylsulfonyl)-1-(4,4,4-trifluorobutyl)-urea], the inhibition at 10 µM in series [1] was determined as 9.6%; in series [2], 50.4%; in series [3] it was 13.2%; in series [4], 27.9%.

Turning to `CCc1nccn1Cc1ccc(-c2cc(CC(C)C)sc2S(=O)(=O)NC(=O)NCc2ccccc2)cc1` [Example 6, 1-Benzyl-3-(3-{p-[(2-ethyl-1H-imidazol-1-yl)methyl]phenyl}-5-isobutyl-2-thienylsulfonyl)-urea], the inhibition at 10 µM stood at 18.1% in series [1], 57% in series [2], 27.3% in series [3] and 51.4% in series [4].

Turning to `CCc1nccn1Cc1ccc(-c2cc(CC(C)C)sc2S(=O)(=O)NC(=O)NCCOC)cc1` [Example 7, 3-(3-{p-[(2-Ethyl-1H-imidazol-1-yl)methyl]phenyl}-5-isobutyl-2-thienylsulfonyl)-1-(2-methoxy-ethyl)urea], the inhibition at 10 µM in series [1] is -0.4%; in series [2], 37.9%; in series [3] it was 3.2%; in series [4] it was 10.2%.

For `Cc1nccn1Cc1ccc(-c2cc(CC(C)C)sc2S(=O)(=O)NC(=O)NCc2ccccn2)cc1F` [Example 13, 3-(3-{3-Fluoro-4-[(2-methyl-1H-imidazol-1-yl)methyl]phenyl}-5-isobutyl-2-thienylsulfonyl)-1-[(2-pyridyl)methyl]urea], the inhibition at 10 µM in series [1] came out at 3%; in series [2] it was 40%; in series [3], 12%; in series [4] it was 32%.

With `Cc1nccn1Cc1ccc(-c2cc(CC(C)C)sc2S(=O)(=O)NC(=O)NCCC(F)(F)F)cc1F` [Example 14, 3-(3-{3-Fluoro-4-[(2-methyl-1H-imidazol-1-yl)methyl]phenyl}-5-isobutyl-2-thienylsulfonyl)-1-(3,3,3-trifluoropropyl)urea], the inhibition at 10 µM in series [1] came to 43%; in series [2], 62%; in series [3], 30%; in series [4], 65%.

Take `Cc1nccn1Cc1ccc(-c2cc(CC(C)C)sc2S(=O)(=O)NC(=O)NCc2nccn2C)cc1F` [Example 15, 1-(3-{3-Fluoro-4-[(2-methyl-1H-imidazol-1-yl)methyl]phenyl}-5-isobutyl-2-thienylsulfonyl)-3-[(1-methyl-1H-imidazol-2-yl)methyl]urea]: the inhibition at 10 µM in series [1] is 63%; in series [2], 73%; in series [3] it was 53%; in series [4], 30%.

Consider `Cc1nccn1Cc1ccc(-c2cc(CC(C)C)sc2S(=O)(=O)NC(=O)NC(C)c2ccccn2)cc1F` (centres unmarked) [Example 25, 3-(3-{3-Fluoro-4-[(2-methyl-1H-imidazol-1-yl)methyl]phenyl}-5-isobutyl-2-thienylsulfonyl)-1-[1-(2-pyridyl)ethyl]urea], for which the inhibition at 10 µM was 23% in series [1], 56% in series [2], 16% in series [3] and 50% in series [4].

`CCc1nccn1Cc1ccc(-c2cc(CC(C)C)sc2S(=O)(=O)NC(=O)NCc2ccc(F)cc2)cc1F.O=C(O)C(F)(F)F` [Example 32, 3-[(3-{4-[(2-ethyl-1H-imidazol-1-yl)methyl]-3-fluorophenyl}-5-(2-methylpropyl)thiophen-2-yl)sulfonyl]-1-[(4-fluorophenyl)methyl] urea trifluoroacetic acid]: the inhibition at 10 µM in series [1] amounted to 25%; in series [2], 67%; in series [3], 39%; in series [4] it was 49%.

`CCCNC(=O)NS(=O)(=O)c1sc(CC(C)C)cc1-c1ccc(Cn2ccnc2CC)c(F)c1.O=C(O)C(F)(F)F` [Example 33, 1-[(3-{4-[(2-ethyl-1H-imidazol-1-yl)methyl]-3-fluorophenyl}-5-(2-methylpropyl)thiophen-2-yl)sulfonyl]-3-propylurea trifluoroacetic acid]: the inhibition at 10 µM was 37% in series [1], 26% in series [2], 18% in series [3] and 34% in series [4].

Take `Cc1nccn1Cc1ccc(-c2cc(CC(C)C)sc2S(=O)(=O)NC(=O)NCc2ccc(F)c(F)c2)cc1F.O=C(O)C(F)(F)F` [Example 34, 1-[(3,4-difluorophenyl)methyl]-3-[(3-{3-fluoro-4-[(2-methyl-1H-imidazol-1-yl)methyl]phenyl}-5-(2-methylpropyl)thiophen-2-yl)sulfonyl]urea trifluoroacetic acid]: the inhibition at 10 µM in series [1] amounted to 57%; in series [2], 80%; in series [3] it was 40%; in series [4], 75%.

With `Cc1nccn1Cc1ccc(-c2cc(CC(C)C)sc2S(=O)(=O)NC(=O)NCc2cccs2)cc1F.O=C(O)C(F)(F)F` [Example 35, 1-[(3-{3-fluoro-4-[(2-methyl-1H-imidazol-1-yl)methyl]phenyl}-5-(2-methylpropyl)thiophen-2-yl)sulfonyl]-3-[(thiophen-2-yl)methyl]urea trifluoroacetic acid], the inhibition at 10 µM was found to be 46% in series [1], 60% in series [2], 45% in series [3] and 71% in series [4].

As to `Cc1nccn1Cc1ccc(-c2cc(CC(C)C)sc2S(=O)(=O)NC(=O)NCc2cc(Cl)ccn2)cc1F.O=C(O)C(F)(F)F` [Example 38, 1-[(4-chloropyridin-2-yl)methyl]-3-[(3-{3-fluoro-4-[(2-methyl-1H-imidazol-1-yl)methyl]phenyl}-5-(2-methylpropyl)thiophen-2-yl)sulfonyl]urea trifluoroacetic acid], the inhibition at 10 µM in series [1] was determined as 25%; in series [2] it was 58%; in series [3], 19%; in series [4], 48%.

`Cc1nccn1Cc1ccc(-c2cc(CC(C)C)sc2S(=O)(=O)NC(=O)NCC(C)C)cc1F.O=C(O)C(F)(F)F` [Example 39, 1-[(3-{3-fluoro-4-[(2-methyl-1H-imidazol-1-yl)methyl]phenyl}-5-(2-methylpropyl)thiophen-2-yl)sulfonyl]-3-(2-methylpropyl)urea trifluoroacetic acid]: the inhibition at 10 µM in series [1] is 28%; in series [2], 56%; in series [3], 10%; in series [4], 44%.

`Cc1nccn1Cc1ccc(-c2cc(CC(C)C)sc2S(=O)(=O)NC(=O)NCC2CCC(F)(F)CC2)cc1F.O=C(O)C(F)(F)F` [Example 40, 1-[(4,4-difluorocyclohexyl)methyl]-3-[(3-{3-fluoro-4-[(2-methyl-1H-imidazol-1-yl)methyl]phenyl}-5-(2-methylpropyl)thiophen-2-yl)sulfonyl]urea trifluoroacetic acid]: the inhibition at 10 µM in series [1] worked out at 54%; in series [2] it was 80%; in series [3], 47%; in series [4], 70%.
